According to the supplement of paper PMC10307832:

Assays:
Assay in all cases: relative viability (nuclei count vs DMSO), 5 days (fraction); higher = more cells survive
[1] = compound: CCC1=CN=CN=C1N2CCN(CC2)CC3=NC4=C(N3)C=C(C=C4)C(F)(F)F + CC(=O)Nc1cccc(-n2c(=O)n(C3CC3)c(=O)c3c(Nc4ccc(I)cc4F)n(C)c(=O)c(C)c32)c1 [Trametinib] (partner 0.02 µM)
Summary of the method: (§1)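 Lung cancer cell lines in 1536-well plates were dosed by pin tool the day after seeding, either with one drug alone or with a fixed anchor-drug dose plus five library-drug doses (not always all listed) in √10 steps. After 5 days, cells were fixed and their nuclei stained in one step (final 0.05% Triton X-100, 1% formaldehyde, 1 ug/ml Hoechst), then counted on 4× images. Relative viability is the nuclei count in treated wells divided by that in vehicle wells. Values are medians of duplicate plates.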

[2] = compound: CCC1=CN=CN=C1N2CCN(CC2)CC3=NC4=C(N3)C=C(C=C4)C(F)(F)F + COc1cc2c(Oc3ccc(NC(=O)C4(C(=O)Nc5ccc(F)cc5)CC4)cc3F)ccnc2cc1OCCCN1CCOCC1 [Foretinib] (partner 0.25 µM)
Summary of the method: as §1

[3] = compound: CCC1=CN=CN=C1N2CCN(CC2)CC3=NC4=C(N3)C=C(C=C4)C(F)(F)F + Cc1cc(Nc2cc(N3CCN(C)CC3)nc(Sc3ccc(NC(=O)C4CC4)cc3)n2)n[nH]1 [Tozasertib] (partner 0.1 µM)
Summary of the method: as §1

[4] = compound: N=C1NC(=O)/C(=C/c2ccc(O)cc2)S1 [Mirin] + COc1cc2c(Oc3ccc(NC(=O)C4(C(=O)Nc5ccc(F)cc5)CC4)cc3F)ccnc2cc1OCCCN1CCOCC1 [Foretinib] (partner 0.25 µM)
Summary of the method: as §1

Row | Cell Line | relative viability ([1]; first compound 0.04 µM) | relative viability ([1]; first compound 0.1265 µM) | relative viability ([1]; first compound 0.4 µM) | relative viability ([1]; first compound 1.265 µM) | relative viability ([1]; first compound 4 µM) | relative viability ([2]; first compound 0.04 µM) | relative viability ([2]; first compound 0.1265 µM) | relative viability ([2]; first compound 0.4 µM) | relative viability ([2]; first compound 1.265 µM) | relative viability ([2]; first compound 4 µM) | relative viability ([3]; first compound 0.04 µM) | relative viability ([3]; first compound 0.1265 µM) | relative viability ([3]; first compound 0.4 µM) | relative viability ([3]; first compound 1.265 µM) | relative viability ([3]; first compound 4 µM) | relative viability ([4]; first compound 0.25 µM) | relative viability ([4]; first compound 0.7906 µM) | relative viability ([4]; first compound 2.5 µM) | relative viability ([4]; first compound 7.906 µM) | relative viability ([4]; first compound 25 µM)
1 | NCI-H2087 | 0.172 | 0.226 | 0.244 | 0.215 | 0.189 | 1 | 1.06 | 0.916 | 1.05 | 0.535 | 0.26 | 0.243 | 0.221 | 0.182 | 0.146 | 1.24 | 1.28 | 1 | 0.943 | 1.08
2 | RERF-LC-KJ | 0.795 | 0.798 | 0.821 | 0.76 | 0.774 | 0.763 | 0.755 | 0.82 | 0.851 | 0.82 | 0.517 | 0.503 | 0.464 | 0.459 | 0.398 | 0.974 | 0.915 | 0.932 | 0.892 | 0.901
3 | LOU-NH91 | 0.782 | 0.768 | 0.789 | 0.727 | 0.817 | 0.863 | 0.984 | 0.909 | 0.966 | 0.92 | 0.625 | 0.68 | 0.669 | 0.585 | 0.657 | 0.937 | 0.987 | 0.935 | 0.93 | 1.16
4 | PC-3 [JPC-3] | – | 0.632 | 0.671 | 0.634 | 0.682 | 1.08 | 0.9 | 0.997 | 0.964 | 0.971 | 0.883 | 0.814 | 0.844 | 0.886 | 0.776 | 1.05 | 1.13 | 1.02 | 1.14 | 1.3
5 | NCI-H2126 | 0.601 | 0.546 | 0.565 | 0.536 | 0.513 | 1.15 | 1.26 | 1.06 | 0.986 | 1.17 | 0.837 | 0.812 | 0.813 | 0.734 | 0.832 | 1.35 | 1.02 | 1.31 | 1.16 | 1.13
6 | LU99A | 0.558 | 0.57 | 0.505 | 0.481 | 0.578 | 0.744 | 0.751 | 0.771 | 0.804 | 0.87 | 0.268 | 0.281 | 0.282 | 0.278 | 0.297 | 0.71 | 0.631 | 0.795 | 0.71 | 0.566
7 | BEN | 1.09 | 1.18 | 0.975 | 0.742 | 0.709 | 0.368 | 0.522 | 0.527 | 0.343 | 0.374 | 0.462 | 0.528 | 0.559 | 0.433 | 0.477 | 0.567 | 0.654 | 0.68 | 0.552 | 0.386
8 | SW 1573 | 0.652 | 0.58 | 0.513 | 0.47 | 0.497 | 0.732 | 0.863 | 0.912 | 0.815 | 0.8 | 0.205 | 0.214 | 0.181 | 0.153 | 0.203 | 0.82 | 0.822 | 0.892 | 0.76 | 0.981
9 | NCI-H1975 | 0.36 | 0.342 | 0.319 | 0.309 | 0.422 | 1 | 0.945 | 0.986 | 0.829 | 0.803 | 0.732 | 0.785 | 0.679 | 0.61 | 0.689 | 0.934 | 0.914 | 0.98 | 0.919 | 0.973
10 | SK-LU-1 | 0.635 | 0.483 | 0.465 | 0.35 | 0.476 | 0.876 | 0.785 | 0.76 | 0.813 | 0.77 | 0.326 | 0.334 | 0.362 | 0.335 | 0.274 | 0.801 | 0.924 | 0.863 | 0.728 | 0.731
11 | NCI-H460 | 0.152 | 0.203 | 0.11 | 0.0864 | 0.0963 | 1.05 | 1.03 | 0.999 | 1.06 | 0.964 | 0.437 | 0.403 | 0.404 | 0.315 | 0.4 | 1.08 | 1.04 | 0.999 | 1.04 | 1.08
12 | LCLC-103H | 0.724 | 0.731 | 0.673 | 0.683 | 0.639 | 0.917 | 0.852 | 0.757 | 0.644 | 0.688 | 0.536 | 0.504 | 0.488 | 0.463 | 0.398 | 0.909 | 0.825 | 0.839 | 0.955 | 0.8
13 | HCC-78 | 0.843 | 0.712 | 0.628 | 0.577 | 0.562 | 0.585 | 0.631 | 0.491 | 0.51 | 0.539 | 0.572 | 0.549 | 0.446 | 0.434 | 0.376 | 0.538 | 0.636 | 0.535 | 0.615 | 0.584
14 | NCI-H1915 | 0.286 | 0.337 | 0.293 | 0.248 | 0.287 | 1.11 | 1.06 | 1.04 | 0.943 | 0.996 | 0.458 | 0.412 | 0.429 | 0.356 | 0.356 | 1.06 | – | 1.12 | 0.948 | 0.975
